{"source": "patent US8785421B1", "about": "“Use of vitamin D in dairy mastitis treatment” (The United States of America as represented by the …, priority 2011, dated 2014)", "key": {"[1]": {"system": "Pseudomonas", "test": "Mastitis-infected cow with chronic Pseudomonas infection treated by intramammary infusion", "type": "in vivo", "settings": "100 ug infusions twice a day in the infected gland; after 2 treatments; from thousands of bacteria per ml; detection limit 100 cfu/ml; FIG. 4", "experimental": "After weeks of various conventional treatment the cow was treated with 25(OH)D3 as described in Example 1, with 100 ug infusions twice a day in the infected gland. The treatment of this animal with 25(OH)D3 caused the bacterial load to go from thousands of bacteria per ml to at or below our detection limit of 100 cfu/ml after 2 treatments (FIG. 4)."}, "[2]": {"system": "Cyp24A1", "test": "Cyp24A1 gene expression in milk cells after intramammary infusion into an infected mammary quarter", "type": "in vivo", "settings": "single 100 μg infusion into infected mammary quarter of two cows; compared to cells obtained prior to infusion"}, "[3]": {"system": "S. uberis", "test": "Experimental S. uberis intramammary infection (mastitis) treated by intramammary infusion after each milking", "type": "in vivo, cows", "settings": "for reduction in bacterial load: 100 μg in 10-ml FBS after each milking, vs FBS sham control", "experimental": "Seven of the animals were treated after each milking with 100 μg of 25(OH)D3 in 10-ml fetal bovine serum (FBS), the other seven were sham treated with 10-ml FBS only. […] The lower bacterial load in the 25(OH)D3 treated animals and therefore a likely reduction of pyrogens explains the reduction in fever seen in the treated group. The level of bovine serum albumin (BSA) in the milk is used as an indicator of changes in the mammary vascular permeability in the gland and typically increases with an acute infection. […] Fewer bacteria in the treated group (FIG. 1) leads to less tissue damage (FIG. 3) and leads to less pyrogens going systemic (FIG. 2). Also, after the fourth day of the infection two cows (out of 6) in the 25D3 had no infection, whereas, all six were infected at this time point in the control treated group."}}, "data": [{"compound": "C=C1CC[C@H](O)C/C1=C/C=C1\\CCC[C@]2(C)[C@@H]([C@H](C)CCCC(C)(C)O)CC[C@@H]12", "note": "[25(OH)D3, 25-hydroxy vitamin D3]", "values": [{"measurement": "bacterial load", "setting": "[1]", "result": "≤ 100", "unit": "cfu/ml"}, {"measurement": "gene expression of Cyp24A1", "setting": "[2]", "result": "increased"}, {"measurement": "reduction in bacterial load", "setting": "[3]; day 2 of the experiment", "result": "2-4 log"}, {"measurement": "reduction in bacterial load", "setting": "[3]; days 4 and 5 post infection", "result": "1.5-2 log"}, {"measurement": "cows with no infection", "setting": "[3]; after the fourth day of the infection, all six control cows were infected", "result": "two"}, {"measurement": "level of bovine serum albumin (BSA) in the milk", "setting": "[3]; indicator of mammary vascular permeability, treated vs control, FIG. 3", "result": "not statistically significant"}, {"measurement": "bacterial counts in infected glands", "setting": "[3]; repeated measures analysis, significant difference (p<0.05) at day 2 AM and day 2 PM, FIG. 1", "result": "significantly (p<0.05) reduced"}, {"measurement": "rectal temperatures", "setting": "[3]; treated vs control cows at two time points (p<0.05), FIG. 2", "result": "significantly lower"}]}]}
